Measured values as given in patent US4732909A, “3-(3-halophenyl-3,4-diazatetracyclo-[6.3.1.1^6,10.0^1,5 ]tridec-4-en-2-one compounds and use thereof to treat hypoxia” (Pennwalt Corporation, priority 1987, dated 1988).

Assays:
in vivo = details: ip
mice = assay: antihypoxia test: survival duration of mice in normobaric atmosphere of 96% nitrogen and 4% oxygen; format: in vivo
From the text: The antihypoxia test measures the survival duration of mice in a normobaric atmosphere consisting of 96% nitrogen and 4% oxygen, at ambient temperature. The mice are considered dead when they stop visible aspiration. The test indicates potential clinical utility in situations of central nervous system hypoxia, such as occurs following stroke, cardiac arrest, and traumatic accidents.

Estimated LD50 = format: in vivo; details: ip

O=C1N(c2cccc(Cl)c2)N=C2C3CC4CC(C3)CC12C4 [3-(3-Chlorophenyl)-3,4-diazatetracyclo[6.3.1.1^6,10.0^1,5]tridec-4-en-2-one]
TD50 (in vivo): 25 mg/kg
Antihypoxia, Survial Minutes, Compound (mice; 2.5 mg/kg ip, N=10, ambient temp., control 8.7, P NS (P > 0.05)): 8.0 min
Antihypoxia, Survial Minutes, Compound (mice; 5 mg/kg ip, N=10, ambient temp., control 8.7, P <0.05): 10.5 min
Antihypoxia, Survial Minutes, Compound (mice; 10 mg/kg ip, N=10, ambient temp., control 6.9, P <0.05): 9.5 min
Antihypoxia, Survial Minutes, Compound (mice; 25 mg/kg ip, N=5, ambient temp., control 8.7, P 0.075): 13.0 min
Antihypoxia, Survial Minutes, Compound (mice; 25 mg/kg ip, N=10, ambient temp., control 6.9, P <0.05): 12.6 min
prolongation of survival of mice (in words) (mice; 25 mg/kg, intraperitoneally): prolonged the survival of mice by a very significant margin
Estimated LD50 (Estimated LD50): > 100 mg/kg
